{"source": "patent US20260151384A1", "about": "“ISOQUINOLINE DERIVATIVES AS PROTEIN DEGRADERS, E7 DEGRADERS, ANTIVIRALS, TUMOR THERAPEUTICS AND IMMUNE SUPPRESSIVES” (priority 2022, published 2026)", "key": {"[1]": {"system": "human cervical carcinoma (CaSki) xenograft", "test": "Antitumor efficacy on CaSki human cervical carcinoma xenograft model", "assay_type": "in vivo, nude mice", "conditions": "for % TGI (Day 44), percentage tumor growth inhibition with respect to controls: OC246/OC974 2 mg/kg os", "protocol": "The aim of this study was to assess the in vivo efficacy of OC246 and OC974 on a human cervical carcinoma (CaSki) xenograft model in nude mice. OC246 and OC974 were administered oral once daily for four times with three days off, for three cycles at 2 mg/kg/dose. Cisplatin (CDDP) was used as a reference compound with three weekly intravenous (q7dx3) administrations of 6 mg/kg."}, "[2]": {"target": "HPV16 E7 protein (Human papillomavirus type 16, UniProt P03129)", "sequence (P03129 whole entry)": "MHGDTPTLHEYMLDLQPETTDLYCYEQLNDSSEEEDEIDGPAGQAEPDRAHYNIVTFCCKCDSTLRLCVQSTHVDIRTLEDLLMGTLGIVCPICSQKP", "assay_type": "cell-based", "conditions": "for % Dad: adjusted degradation, CHX steady state set to 100%, Table 2 screen"}, "[3]": {"system": "SARS-CoV-2", "test": "microbe, parasite or virus in culture", "assay_type": "cell-based", "conditions": "for % Inhibition of SARV-CoV-2 virus activity: 1.25 μM, n4"}, "[4]": {"system": "CaSki cells", "test": "Monolayer assay using Sulphorhodamine B (SRB) staining, CaSki", "assay_type": "cell-based, human"}, "[5]": {"system": "CaSki cells", "test": "Cell cycle analysis using Propidium-Iodide staining (flow cytometry)", "assay_type": "cell-based, human", "conditions": "48 hour incubation", "protocol": "Propidium-Iodide (PI) DNA staining is performed to facilitate cell cycle analysis. For PI-DNA staining, fixed cells and eventually antibody-stained cells are resuspended in 450 μl of PBS (per 10^6 cells) and incubated with 100 μg/ml RNase (stock 1 mg/ml, in PBS) for 10 minutes at 37° C. Cells are then incubated with 5 μg/106 cells of PI (stock 1 mg/ml in PBS) for 10 minutes at room temperature. Samples are stored at 4° C. until CF analysis.\nCaSki cells were incubated with various compounds and cell cycle distribution of the cells was assessed using Propidium-Iodide staining.\nIn order to analyze the cytostatic versus the cytotoxic effect of OC compounds, cell cycle profiles were analyzed in vitro after 48 hour incubations using Flow Cytometry as a read out. For this a cell cycle analysis from selected OC E7 degrader compounds was conducted in CaSki cells. Using 6 well plates, 1.5×10^5 cells were seeded for each well and grown over night at 37° C. 5% CO2. For analysis of the cell cycle behavior, cells were analyzed in the presence of propidium Iodide (PI^−) by flow cytometry (FC). Briefly, cells were detached by trypsin digestion, all supernatants were included in the analysis, and fixed with 70% ice cold ethanol and stored at 4° C. until FC analysis using P1^− staining (1 mg/ml). At least 7000 events were acquired for each sample."}}, "note": "Values joined by “and” are separate entries in the source; they are usually repeats but may differ in a detail not shown here. Equal values may be shown once."}
{"smiles": "[NH2][Pt]([NH2])([Cl])[Cl]", "note": "[CDDP, Cisplatin, reference compound]", "values": [{"measurement": "% TGI (Day 44), percentage tumor growth inhibition with respect to controls", "setting": "[1]; CDDP 6 mg/kg i.v. q7dx3", "result": 79.2, "unit": "%"}]}
{"smiles": "Cc1ccc(CN2C(=O)c3ccccc3C(C(=O)NCc3ccc(Cl)cc3)C2c2ccc(Cl)cc2)cc1", "note": "(stereo not drawn) [OC253]", "values": [{"measurement": "% Dad", "setting": "[2]", "result": 0, "unit": "%"}]}
{"smiles": "C[C@@H]1C[C@@H]([C@H](O)CC2CC(=O)NC(=O)C2)C(=O)[C@@H](C)C1", "note": "[CHX, Cycloheximide, reference compound]", "values": [{"measurement": "% Dab", "setting": "[2]; CaSki cells, 10 μM, four hours, CHX set to 100%", "result": 100, "unit": "%"}, {"measurement": "Measured MFI (mean fluorescence intensity) of E7 signal", "setting": "[2]; CaSki cells, 10 μM, four hours, vehicle T 8.06", "result": 1.71}]}
{"smiles": "Nc1ccc(-c2ccc3ncc4ccc(=O)n(-c5cccc(C(F)(F)F)c5)c4c3c2)cn1", "note": "[Torin2]", "values": [{"measurement": "% Inhibition of SARV-CoV-2 virus activity", "setting": "[3]", "result": 1.46, "unit": "%"}]}
{"smiles": "COc1ccc2c(c1)C(=O)N(CC1CCN(C)CC1)[C@@H](c1ccc(C(F)(F)F)cc1)[C@@H]2C(=O)Nc1cccc(N2CCN(C)CC2)c1", "note": "(relative stereo) [VS977, rel-(3R,4R)-7-methoxy-N-(3-(4-methylpiperazin-1-yl)phenyl)-2-((1-methylpiperidin-4-yl)methyl)-1-oxo-3-(4-(trifluoromethyl)phenyl)-1,2,3,4-tetrahydroisoquinoline-4-carboxamide]", "values": [{"measurement": "SRB anti-neoplastic effect compared among VS035, VS977, VS978, OC969", "setting": "[4]; CaSki, Test 21, FIG. 12", "result": "strongest effect"}]}
{"smiles": "c1c2c(cc3c1OCO3)-c1cc3ccc4c(c3c[n+]1CC2)OCO4", "note": "[Coptisin]", "values": [{"measurement": "% Inhibition of SARV-CoV-2 virus activity", "setting": "[3]", "result": 98.97, "unit": "%"}]}
{"smiles": "CCNC(=O)N1CCN(C(=O)C2c3ccccc3C(=O)N(Cc3ccc(C)cc3)C2c2ccc(Cl)cc2)CC1", "note": "(stereo not drawn) [OC257]", "values": [{"measurement": "% Dad", "setting": "[2]", "result": 12, "unit": "%"}]}
{"smiles": "CS(=O)(=O)O.Cc1c(O)cccc1C(=O)N[C@@H](CSc1ccccc1)[C@H](O)CN1C[C@H]2CCCC[C@H]2C[C@H]1C(=O)NC(C)(C)C", "note": "[Neifinavir-Mesylat]", "values": [{"measurement": "% Inhibition of SARV-CoV-2 virus activity", "setting": "[3]", "result": 9.49, "unit": "%"}]}
{"smiles": "CN1CCC(CN2C(=O)c3ccccc3[C@@H](C(=O)Nc3cccc(N4CCN(C)CC4)c3)[C@@H]2c2ccc(C(F)(F)F)cc2)CC1", "note": "(relative stereo) [OC974, rel-(3R,4R)-N-(3-(4-methylpiperazin-1-yl)phenyl)-2-((1-methylpiperidin-4-yl)methyl)-1-oxo-3-(4-(trifluoromethyl)phenyl)-1,2,3,4-tetrahydroisoquinoline-4-carboxamide]", "values": [{"measurement": "Tumor Volume Day 44 (mm^3 ± SD)", "setting": "[1]; OC246/OC974 2 mg/kg os daily 4 x week 3 cycles, CDDP 6 mg/kg i.v. q7dx3, n = 7, control 1099 ± 503", "result": "307 ± 171", "unit": "mm^3"}, {"measurement": "% TGI (Day 44), percentage tumor growth inhibition with respect to controls", "setting": "[1]; CDDP 6 mg/kg i.v. q7dx3", "result": 63.9, "unit": "%"}, {"measurement": "Δ% Body Weight", "setting": "[1]; between first day of treatment (day 20) and Day 44, control +4.9", "result": "+1.1%"}, {"measurement": "Δ% on Day 44", "setting": "[1]; same schedules, control 100", "result": 23, "unit": "%"}, {"measurement": "EC50", "setting": "[4]; Homo sapiens, Ca-Ski, read-out: EC50 mean [nM]", "result": 1550, "unit": "nM"}, {"measurement": "G1/5 μM", "setting": "[5]; 5 μM, % cells in G1, no treatment 53.3", "result": 49.6, "unit": "%"}, {"measurement": "G2/5 μM", "setting": "[5]; 5 μM, % cells in G2, no treatment 15.6", "result": 9.9, "unit": "%"}, {"measurement": "A*/5 μM (Apoptosis as measured from total SUB G1 content)", "setting": "[5]; 5 μM, no treatment 15.0", "result": 19.5, "unit": "%"}, {"measurement": "G1/10 μM", "setting": "[5]; 10 μM, % cells in G1, no treatment 53.3", "result": 8.7, "unit": "%"}, {"measurement": "G2/10 μM", "setting": "[5]; 10 μM, % cells in G2, no treatment 15.6", "result": 0.8, "unit": "%"}, {"measurement": "A*/10 μM (Apoptosis as measured from total SUB G1 content)", "setting": "[5]; 10 μM, no treatment 15.0", "result": "82.9% and 81.8%"}, {"measurement": "inhibition at 1.25 µM", "setting": "[3]; Severe acute respiratory syndrome coronavirus 2, n4, read-out: % Inhibition of SARV-CoV-2 virus activity", "result": 54.3, "unit": "%"}]}
{"smiles": "CCC(=O)N1CCN(c2ccc(-n3c(=O)ccc4cnc5ccc(-c6cnc7ccccc7c6)cc5c43)cc2C(F)(F)F)CC1", "note": "[Torin1]", "values": [{"measurement": "% Inhibition of SARV-CoV-2 virus activity", "setting": "[3]", "result": 7.00, "unit": "%"}]}
{"smiles": "COc1ccc2cc1Oc1ccc(cc1)C[C@H]1c3c(cc4c(c3Oc3cc5c(cc3OC)CCN(C)[C@@H]5C2)OCO4)CCN1C", "note": "[Cepharantin]", "values": [{"measurement": "% Inhibition of SARV-CoV-2 virus activity", "setting": "[3]", "result": 2.32, "unit": "%"}]}
{"smiles": "Cc1ccc(CN2C(=O)c3ccccc3C(C(=O)NCc3ccc(C(C)C)cc3)C2c2ccc(Cl)cc2)cc1", "note": "(stereo not drawn) [OC254]", "values": [{"measurement": "% Dad", "setting": "[2]", "result": 16, "unit": "%"}]}
